Experiments:
[1] = target: T1, human progesterone receptor B (Homo sapiens, UniProt P06401); assay: Progesterone receptor-antagonistic action in stably transfected SK-N-MC cells with MMTV-LUC reporter (PR-B); assay type: cell-based; conditions: antagonistic potency against 0.1 nmol/l promegestone, 24 hours, luciferase
T1 construct: expressed in transfected cells; host or cells: SK-N-MC human neuroblastoma cells, stably transfected with pRChPR-B-neo and pMMTV-LUC
T1 sequence (P06401 1-933): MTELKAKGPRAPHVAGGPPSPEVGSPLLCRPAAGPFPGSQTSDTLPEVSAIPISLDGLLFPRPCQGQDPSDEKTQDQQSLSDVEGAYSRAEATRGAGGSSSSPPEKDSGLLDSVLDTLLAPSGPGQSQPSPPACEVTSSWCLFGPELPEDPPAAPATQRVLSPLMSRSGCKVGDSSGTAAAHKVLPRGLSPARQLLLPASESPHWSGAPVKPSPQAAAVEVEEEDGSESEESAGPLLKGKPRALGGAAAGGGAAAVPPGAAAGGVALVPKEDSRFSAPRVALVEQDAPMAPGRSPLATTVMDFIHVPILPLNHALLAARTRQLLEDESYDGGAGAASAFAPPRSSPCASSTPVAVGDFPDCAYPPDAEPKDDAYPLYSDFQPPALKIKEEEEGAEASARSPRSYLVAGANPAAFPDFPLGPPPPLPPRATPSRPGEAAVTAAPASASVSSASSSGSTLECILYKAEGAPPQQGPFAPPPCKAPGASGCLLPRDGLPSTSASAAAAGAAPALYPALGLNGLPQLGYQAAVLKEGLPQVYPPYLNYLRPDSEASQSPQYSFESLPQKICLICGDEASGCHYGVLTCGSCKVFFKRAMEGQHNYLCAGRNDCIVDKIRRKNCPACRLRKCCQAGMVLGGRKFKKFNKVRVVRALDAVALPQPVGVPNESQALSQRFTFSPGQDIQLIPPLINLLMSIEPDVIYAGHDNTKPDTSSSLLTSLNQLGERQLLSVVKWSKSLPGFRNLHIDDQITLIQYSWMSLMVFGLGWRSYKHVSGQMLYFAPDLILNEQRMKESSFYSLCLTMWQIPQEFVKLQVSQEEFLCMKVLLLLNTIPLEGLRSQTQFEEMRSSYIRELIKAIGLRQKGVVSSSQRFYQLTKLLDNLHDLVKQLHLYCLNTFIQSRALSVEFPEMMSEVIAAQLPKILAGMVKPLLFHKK
Protocol: (§1) Determination of Progesterone Receptor-Antagonistic Action in Stable Transfectants of Human Neuroblastoma Cells (SK-N-MC Cells) with the Human Progesterone A or Progesterone B Receptor and an MN-LUC Reporter Construct
(§2) SK-N-MC cells (human neuroblastoma cells) which have been stably transfected with plasmids expressing the human progesterone receptor B (pRChPR-B-neo) or the human progesterone receptor A (pRChPR-A-neo) and a reporter construct (pMMTV-LUC) were incubated for 24 hours either in the absence (negative control) or in the presence of ascending amounts of the particular test compound (0.01 nmol/l, 0.1 nmol/l, 1 nmol/l, 10 nmol/l, 100 nmol/l and […]), in order to determine the agonistic efficacy. As a positive control of the reporter gene induction, the cells were treated with the synthetic gestagen promegestone (0.01 nmol/l, 0.1 nmol/l, 1 nmol/l, 10 nmol/l, 100 nmol/l and […]). To determine the antagonistic activity, the cells were treated with 0.1 nmol/l promegestone and additionally with ascending amounts of the particular test compound (0.01 nmol/l, 0.1 nmol/l, 1 nmol/l, 10 nmol/l, 100 nmol/l and […]). The activity of the reporter gene LUC (LUC=luciferase) was determined in the cell lysates and measured as RLU (relative light units). All measurements are reported as % efficacy and as EC50 and IC50 concentrations.

[2] = target: T2, human progesterone receptor A (Homo sapiens, UniProt P06401); assay: Progesterone receptor-antagonistic action in stably transfected SK-N-MC cells with MMTV-LUC reporter (PR-A); assay type: cell-based; conditions: antagonistic potency against 0.1 nmol/l promegestone, 24 hours, luciferase
T2 construct: expressed in transfected cells; host or cells: SK-N-MC human neuroblastoma cells, stably transfected with pRChPR-A-neo and pMMTV-LUC
T2 sequence (P06401 1-769 isoform P06401-2): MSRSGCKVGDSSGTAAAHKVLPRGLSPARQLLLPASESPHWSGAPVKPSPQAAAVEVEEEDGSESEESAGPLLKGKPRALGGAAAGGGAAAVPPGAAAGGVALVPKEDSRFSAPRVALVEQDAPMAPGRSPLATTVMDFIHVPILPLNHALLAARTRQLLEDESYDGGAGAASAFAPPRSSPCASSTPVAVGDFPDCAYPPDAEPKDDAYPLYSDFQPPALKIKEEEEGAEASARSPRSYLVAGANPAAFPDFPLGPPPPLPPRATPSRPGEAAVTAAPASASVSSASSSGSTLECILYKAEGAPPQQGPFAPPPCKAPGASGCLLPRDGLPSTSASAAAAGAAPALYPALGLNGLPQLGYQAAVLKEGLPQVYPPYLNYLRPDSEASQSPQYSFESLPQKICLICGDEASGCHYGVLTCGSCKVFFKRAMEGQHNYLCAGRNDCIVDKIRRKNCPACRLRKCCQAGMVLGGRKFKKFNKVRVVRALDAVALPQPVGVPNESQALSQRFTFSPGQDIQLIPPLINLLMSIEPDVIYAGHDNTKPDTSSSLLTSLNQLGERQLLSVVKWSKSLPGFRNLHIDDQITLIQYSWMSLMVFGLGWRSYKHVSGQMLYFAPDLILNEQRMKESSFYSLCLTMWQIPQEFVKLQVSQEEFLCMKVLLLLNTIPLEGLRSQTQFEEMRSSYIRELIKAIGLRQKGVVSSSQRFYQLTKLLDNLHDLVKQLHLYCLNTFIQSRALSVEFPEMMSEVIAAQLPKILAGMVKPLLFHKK
Protocol: as §1, §2

SMILES | IC50 [1] [nM] | IC50 [2] [nM]
COC(=O)c1ccc(/C=C/c2ccc([C@H]3C[C@@]4(C)[C@@H](CC[C@@]4(O)C(F)(F)C(F)(F)F)[C@@H]4CCC5=CC(=O)CCC5=C43)cc2)cc1 [Example 31, 4-{(E)-2-[4-((8S,11R,13S,14S,17S)-17-hydroxy-13-methyl-3-oxo-17-pentafluoroethyl-2,3,6,7,8,11,12,13,14,15,16,17-dodecahydro-1H-cyclopenta[a]phenanthren-11-yl)phenyl]vinyl}benzoic acid methyl ester] | 0.1 | 0.09
C[C@]12C[C@H](c3ccc(/C=C/c4ccc(S(C)(=O)=O)cc4)cc3)C3=C4CCC(=O)C=C4CC[C@H]3[C@@H]1CC[C@@]2(O)C(F)(F)C(F)(F)F [Example 32, (8S,11R,13S,14S,17S)-17-hydroxy-11-{4-[(E)-2-(4-methanesulphonylphenyl)vinyl]phenyl}-13-methyl-17-pentafluoroethyl-1,2,6,7,8,11,12,13,14,15,16,17-dodecahydrocyclopenta[a]phenanthren-3-one] | 0.01 | 0.01
CSc1ccc(/C=C/c2ccc([C@H]3C[C@@]4(C)[C@@H](CC[C@@]4(O)C(F)(F)C(F)(F)F)[C@@H]4CCC5=CC(=O)CCC5=C43)cc2)cc1 [Example 33, (8S,11R,13S,14S,17S)-17-hydroxy-13-methyl-11-{4-[(E)-2-(4-methylsulphanylphenyl)vinyl]phenyl}-17-pentafluoroethyl-1,2,6,7,8,11,12,13,14,15,16,17-dodecahydrocyclopenta[a]phenanthren-3-one] | 0.8 | 0.1
C[C@]12C[C@H](c3ccc(/C=N/OCC(=O)O)cc3)C3=C4CCC(=O)C=C4CC[C@H]3[C@@H]1CC[C@@]2(O)C(F)(F)C(F)(F)F [Example 34, [1-[4-((8S,11R,13S,14S,17S)-17-hydroxy-13-methyl-3-oxo-17-pentafluoroethyl-2,3,6,7,8,11,12,13,14,15,16,17-dodecahydro-1H-cyclopenta[a]phenanthren-11-yl)phenyl]meth-(E)-ylideneaminooxy]acetic acid] | 2.8 | 3.9
C[C@]12C[C@H](c3ccc(C=NOCc4ccccc4)cc3)C3=C4CCC(=O)C=C4CC[C@H]3[C@@H]1CC[C@@]2(O)C(F)(F)C(F)(F)F [Example 35, 4-((8S,11R,13S,14S,17S)-17-hydroxy-13-methyl-3-oxo-17-pentafluoroethyl-2,3,6,7,8,11,12,13,14,15,16,17-dodecahydro-1H-cyclopenta[a]phenanthren-11-yl)benzaldehyde O-benzyl oxime] | 0.09 | 0.1
C[C@]12C[C@H](c3ccc(/C=N/OCc4ccc(Cl)c(Cl)c4)cc3)C3=C4CCC(=O)C=C4CC[C@H]3[C@@H]1CC[C@@]2(O)C(F)(F)C(F)(F)F [Example 37, 4-((8S,11R,13S,14S,17S)-17-hydroxy-13-methyl-3-oxo-17-pentafluoroethyl-2,3,6,7,8,11,12,13,14,15,16,17-dodecahydro-1H-cyclopenta[a]phenanthren-11-yl)benzaldehyde O-(3,4-dichlorobenzyl)oxime] | 0.5 | 0.4
CC(C)CO/N=C/c1ccc([C@H]2C[C@@]3(C)[C@@H](CC[C@@]3(O)C(F)(F)C(F)(F)F)[C@@H]3CCC4=CC(=O)CCC4=C32)cc1 [Example 38, 4-((8S,11R,13S,14S,17S)-17-hydroxy-13-methyl-3-oxo-17-pentafluoroethyl-2,3,6,7,8,11,12,13,14,15,16,17-dodecahydro-1H-cyclopenta[a]phenanthren-11-yl)benzaldehyde O-isobutyl oxime] | 0.1 | 0.09
CC(C)(C)NC(=O)NC/C=C/c1ccc([C@H]2C[C@@]3(C)C(CC[C@@]3(O)C(F)(F)C(F)(F)F)C3CCC4=CC(=O)CCC4=C32)cc1 (some centres unmarked) [Example 41] | 0.1 | 0.1
C[C@]12C[C@H](c3ccc(/C=C/CNC(=O)Nc4ccc(F)cc4)cc3)C3=C4CCC(=O)C=C4CC[C@H]3[C@@H]1CC[C@@]2(O)C(F)(F)C(F)(F)F [Example 44, 1-(4-fluorophenyl)-3-{(E)-3-[4-((8S,11R,13S,14S,17S)-17-hydroxy-13-methyl-3-oxo-17-pentafluoroethyl-2,3,6,7,8,11,12,13,14,15,16,17-dodecahydro-1H-cyclopenta[a]phenanthren-11-yl)phenyl]allyl}urea] | 0.1 | 0.1
Cc1ccc(NC(=O)NC/C=C/c2ccc([C@H]3C[C@@]4(C)[C@@H](CC[C@@]4(O)C(F)(F)C(F)(F)F)[C@@H]4CCC5=CC(=O)CCC5=C43)cc2)cc1 [Example 45, 1-{(E)-3-[4-((8S,11R,13S,14S,17S)-17-hydroxy-13-methyl-3-oxo-17-pentafluoroethyl-2,3,6,7,8,11,12,13,14,15,16,17-dodecahydro-1H-cyclopenta[a]phenanthren-11-yl)phenyl]allyl}-3-p-tolylurea] | 0.1 | 0.1
C[C@]12C[C@H](c3ccc(/C=C/CNC(=O)NCc4ccccc4)cc3)C3=C4CCC(=O)C=C4CC[C@H]3[C@@H]1CC[C@@]2(O)C(F)(F)C(F)(F)F [Example 46, 1-benzyl-3-{(E)-3-[4-((8S,11R,13S,14S,17S)-17-hydroxy-13-methyl-3-oxo-17-pentafluoroethyl-2,3,6,7,8,11,12,13,14,15,16,17-dodecahydro-1H-cyclopenta[a]phenanthren-11-yl)phenyl]allyl}urea] | 0.09 | 0.07
CC(C)(C)c1ccc(NC(=O)NC/C=C/c2ccc([C@H]3C[C@@]4(C)C(CC[C@@]4(O)C(F)(F)C(F)(F)F)C4CCC5=CC(=O)CCC5=C43)cc2)cc1 (some centres unmarked) [Example 47] | 0.3 | 0.8
Cc1noc(C)c1NC(=O)NC/C=C/c1ccc([C@H]2C[C@@]3(C)[C@@H](CC[C@@]3(O)C(F)(F)C(F)(F)F)[C@@H]3CCC4=CC(=O)CCC4=C32)cc1 [Example 48, 1-(3,5-dimethylisoxazol-4-yl)-3-{(E)-3-[4-((8S,11R,13S,14S,17S)-17-hydroxy-13-methyl-3-oxo-17-pentafluoroethyl-2,3,6,7,8,11,12,13,14,15,16,17-dodecahydro-1H-cyclopenta[a]phenanthren-11-yl)phenyl]allyl}urea] | 0.03 | 0.09

Source: patent US9156877B2, “17-hydroxy-17-pentafluorethyl-estra-4,9(10)-dien-11-benzylidene derivatives, methods for the production thereof and use thereof for treating diseases” (Bayer Intellectual Property GmbH, priority 2009, dated 2015)
